Reference: US5922775A, “Method of treating malignant tumors with ketone thyroxine analogues having no significant hormonal activity” (priority 1997, dated 1999)

Key:
[1] = tested on: microtubule protein (MTP); experiment: Microtubule assembly (MTP polymerization) in vitro, optical test at 350 nm; format: biochemical, bovine or rabbit (brain); details: for Percent inhibition of intitial velocity (microtubule assembly in vitro): 10 μM drug, GTP 1 mM, 37° C., averages of duplicate assay; for effect of substitution on inhibition of MTP polymerization: compared with DIME; for inhibitory action on MTP assembly (comparison, FIG. 2): drug concentrations up to 20 μM; for order of potency on MTP assembly (FIG. 3): zero to 10 μM drug, lowered GTP concentration (10 μM)
From the text: This inhibition is critically dependent on the concentration of GTP. The quantitative correlation between the concentrations of DIME and GTP, under conditions of a linear rate of MTP polymerization, follows Michaelis-Menten kinetics and the inhibition portrays a "mixed" type, where km for GTP and Vmax are altered simultaneously. Chemical analogues of DIME inhibit MTP polymerization parallel to their antitumorigenic action in vivo. The MTP site is one of the early cellular response sites of DIME.
J. Oncol. Abnormal spindle structures could be the result of DIME-MTP interaction or reactions of DIME with components of the microtubule organizing center or with as yet undefined systems sequentially or in concert. Since time-dependent quantitative analysis of the MTP system in situ is unsuitable for initial velocity measurement we adapted the in vitro assembly system of neurotubules as a model for a quantitative analysis of the interaction of DIME with MTP. […] The time course of MTP assembly consists of initiation and propagation and termination steps, Gaskin, et al., 1974, "Turbidimetric studies of the in vitro assembly and disassembly of porcine neurotubules", J. Mol. Biol. 89:737-758. The rate of propagation under defined conditions is sufficiently linear to permit kinetic analysis, that can be evaluated with respect DIME and GTP concentrations. As we show here the inhibition of MTP assembly by DIME occurs in the same range of drug concentration as required to inhibit tumorigonesis in vivo, or to inhibit cell replication or induce eventual cell death; Mendeleyev, et al., 1997. "Structural specificity and tumoricidal action of methyl-3,5-diiodo-4-(4'-methoxyphenoxy)benzoate (DIME)" Int. J. Oncol., 10:689-695. Therefore the DIME-MTP interaction is most probably a component of the apparently pleiotropic cellular mechanism of action of DIME.
Preparation of MTP and an optical test for polymerization was adopted from published methods, Gaskin, et al., 1974, "Turbidimetric studies of the in vitro assembly and disassembly of porcine neurotubules", J. Mol. Biol. 89:737-758; Tiwari, et al., 1993, "A pH and temperature-dependent cycling method that doubles the yield of microtubule protein", Anal. Biochem. 215:96-103. Bovine or rabbit brain was homogenized in an equal volume of ice cold buffer containing 100 mM Pipes/K^+ (pH 7.4), 4 mM EGTA. 1 mM MgCl2, 0.5 mM DTT and 0.1 mM PMSF, and centrifuged at 39,000 g for 1 hour at 4° C. To the supernatant, DMSO (8% final concentration) and GTP (1 mM final concentration) were added, followed by incubation at 37° C. for 30 minutes. Microtubules were pelleted at 100,000 g at 37° C. for 30 minutes. The pellets were incubated on ice for 15 minutes, followed by resuspension in ice cold PEM buffer (100 mM Pipes/K+ (pH 6.9), 1 mM EGTA, 1 mM MgCl2). This warm polymerization and cold depolymerization cycle was repeated once more and the cold, resuspended monomeric MTP (8-10 mg/ml protein) was used for the optical test for polymerization kinetics. Both rabbit or bovine brain yielded identical MTP preparations.
The polymerization reaction was started by the addition of […] of MTP solution (equivalent to 0.8-1.0 mg protein) and initial linear rates of increase in absorbance at 350 nm followed and recorded at 37° C. in a Perkin-Elmer 552 double beam spectrophotometer, equipped with a thermostatically controlled cuvette holder.
It is apparent that the rate of MTP polymerization proceeds in a linear manner, thus conditions for maximal polymerization rates as defined by Berne, B, 1974, "Interpretation of light scattering from long rods", J. Mol. Biol. 89:755-758 appear fulfilled. Therefore it is possible to determine the quantitative correlation between [DIME] and [GTP] by comparing the linear rate in the presence of varying drug and activator concentrations.
The assay system consisted of 240 μl of PEM buffer containing 8% DMSO […]
(added in 3 μl), or solvent control and 0.6 mg MTP (60 μl). […]

E-ras 20 cells = details: carboxylic acid vs methyl ester; cited from earlier work
human cancer cells = details: cited from earlier work; for cytostatic / cytocidal activity: cellular assays and in vivo
mammary cancer cells = experiment: Colony formation by mammary cancer cells (FIG. 1); format: cell-based, human; details: DIME vs DIPE
From the text: FIG. 1 is a graph illustrating the cell killing effects of DIME and DIPE on mammary cancer colonies;
The effect of DIME and DIPE on colony formation by mammary cancer cells is illustrated in FIG. 1, where the results are superimposable, confirming that cytocidal action of DIME and DIPE are indistinguishable.

cellular esterases = experiment: Stability against cellular esterases
From the text: Moreover, amide analogs of DIME, having an NH2 or a substituted amino group, may be subject to hydrolysis catalyzed by cellular amidases. Since the hydrolysis product of such a hydrolysis is a carboxylic acid, the same decrease in efficacy can result. In order to decrease the chemical lability in the DIME pharmacophore structure, ketone analogues of DIME may be used.
A more detailed kinetic comparison of DIME, DIPE and DIPP on the kinetics of MTP assembly, in a concentration range of zero to 10 μM drug and a louvered GTP concentration (10 μM), is shown in FIG. 3.

[2] = tested on: human mammary cancer cells (MDA-MB-231); experiment: Growth of human mammary cancer cells (Table 2 A); format: cell-based; details: 2 μM
From the text: (§1) The effects of these three substances on the growth of human mammary cancer cells (MDA-MB-231) and human lung cancer cells (A 549) are summarized in Table 2.
In section (a) of Table 2 the effects of DIME, DIPE and DIPP on the growth of mammary cancer cells, assayed at 48 and 72 hrs, is shown. […] The slightly lesser efficacy of DIPP could be predicted from earlier results obtained with DIME analogs (International Journal of Oncology, 1997, 10, 689-695, FIG. 1) where we have shown that extending the methyl to ethyl substitution (on the carboxyl ester) diminishes cytotoxicity against tumor cells. A similar phenomenon occurs when DIPE is extended to DIPP (i.e. from the ethanone to the propanone).
(§2) (×10^3) Cell number per 2 cm^2

[3] = tested on: human lung cancer cells (A 549); experiment: Growth of human lung cancer cells (Table 2 B); format: cell-based
From the text: as §1, §2

Rana pipiens tadpoles = details: tadpole metamorphosis; cited from earlier work
[4] = tested on: non-malignant mouse pituitary adenoma; details: cited from earlier work
thyroid iodine uptake = details: rat, in vivo; cited from earlier work

In the case of `CCCCOc1ccc(Oc2c(I)cc(C(=O)OC)cc2I)cc1` [Compound 4], the “Percent inhibition of intitial velocity (microtubule assembly in vitro)” value (shortened to “Percent inhibition of intitial velocity”) [1] is reported as 8% and the “effect of substitution on inhibition of MTP polymerization” value [1] is reported as “progressively diminishes inhibition of MTP polymerization”.

For `COc1ccc(Oc2c(I)cc(C(N)=O)cc2I)cc1` [Compound 7], the “Percent inhibition of intitial velocity” value [1] was 43%.

For `COc1ccc(Oc2c(I)cc(C(=O)O)cc2I)cc1` [Compound 6], the “Percent inhibition of intitial velocity” value [1] is listed as 0%, the “effect of substitution on inhibition of MTP polymerization” value [1] is listed as “completely abolishes the inhibitory effect on MTP polymerization” and the antitumorigenic action (E-ras 20 cells) is listed as “only halves the antitumorigenic action”. The “efficacy against tumor cells relative to ester” value (human cancer cells; carboxylic acid from hydrolysis of the ester) was “much less efficacy against tumor cells than the ester”.

For `CCCOc1ccc(Oc2c(I)cc(C(=O)OC)cc2I)cc1` [4'-propoxy homologue], the “cytostatic / cytocidal activity” value (human cancer cells) is listed as “completely inactive”.

In the case of `CCOC(=O)c1cc(I)c(Oc2ccc(OC)cc2)c(I)c1` [Compound 5], the “Percent inhibition of intitial velocity” value [1] is given as 35% and the “cytostatic / cytocidal activity” value (human cancer cells) is given as “completely inactive”.

With `COc1ccc(Oc2c(I)cc(C(C)=O)cc2I)cc1` [DIPE, 1-[3,5-diiodo-4-(4'-methoxyphenoxy)-phenyl]-ethanone] the “effect on colony formation (FIG. 1)” value (mammary cancer cells) was “superimposable”, the “inhibitory action on MTP assembly (comparison, FIG. 2)” value [1] was “similar” and the “order of potency on MTP assembly (FIG. 3)” value [1] was “DIME>DIPE>DIPP”. The stability against esterases (cellular esterases) was “absence of esterase action”, the Cell number ([2]; 48 hours, control 150) was 55 ×10^3 cell number per 2 cm^2 w and the Cell number ([2]; 72 hours, control 300) was 60 ×10^3 cell number per 2 cm^2 w. The Cell number ([3]; 2 μM, 48 hours, control 110) was 78 ×10^3 cell number per 2 cm^2 w, the Cell number ([3]; 2 μM, 72 hours, control 190) was 81 ×10^3 cell number per 2 cm^2 w and the Cell number ([3]; 5 μM + BNPP 150 μM (esterase inhibitor), 48 hours, control 110) was 37 ×10^3 cell number per 2 cm^2 w. The Cell number ([3]; 5 μM + BNPP 150 μM (esterase inhibitor), 72 hours, control 190) was 38 ×10^3 cell number per 2 cm^2 w, the Cell number ([3]; 5 μM, 48 hours, control 110) was 38 ×10^3 cell number per 2 cm^2 w and the Cell number ([3]; 5 μM, 72 hours, control 190) was 40 ×10^3 cell number per 2 cm^2 w. The “effect of esterase inhibitor BNPP on cytocidal action” value ([3]; lung cancer cells, with BNPP) was “no supportive effect”.

In the case of `COC(=O)c1cc(I)c(Oc2ccc(OC)cc2Cl)c(I)c1` [2'-chloro analogue of DIME], the “maximal inhibitory action on growth as compared to DIME” value (human cancer cells; human cancer cells) is given as “about 25%”.

For `NC(Cc1cc(I)c(Oc2cc(I)c(O)c(I)c2)c(I)c1)C(=O)O` (stereo not drawn) [thyroxine], the “cell differentiating / metamorphogenic activity” value (Rana pipiens tadpoles) is listed as “induces cell differentiation”, the “inhibition of growth of non-malignant pituitary tumor” value [4] is listed as “depress growth of non-malignant mouse pituitary thyrotropic tumors” and the “suppression of uptake of iodine by the thyroid” value (thyroid iodine uptake) is listed as “suppresses uptake of iodine by the thyroid”.

For `CCOc1ccc(Oc2c(I)cc(C(=O)OC)cc2I)cc1` [Compound 2], the “Percent inhibition of intitial velocity” value [1] is given as 76%, the “effect of substitution on inhibition of MTP polymerization” value [1] is given as “progressively diminishes inhibition of MTP polymerization” and the “maximal cytocidal action as compared to DIME” value (human cancer cells; human cancer cells) is given as 25-30%.

With `COc1ccc(Oc2c(I)cc(C(=O)N(C)C)cc2I)cc1` [Compound 9] the “Percent inhibition of intitial velocity” value [1] was 6%.

In the case of `CCC(=O)c1cc(I)c(Oc2ccc(OC)cc2)c(I)c1` [DIPP, 1-[3,5-diiodo-4-(4'-methoxyphenoxy)-phenyl]-1-propanone], the “inhibitory action on MTP assembly (comparison, FIG. 2)” value [1] is reported as “similar”, the “order of potency on MTP assembly (FIG. 3)” value [1] is reported as “DIME>DIPE>DIPP” and the Cell number ([2]; 48 hours, control 150) is reported as 90 ×10^3 cell number per 2 cm^2 w. For the same molecule, the Cell number ([2]; 72 hours, control 300) was 145 ×10^3 cell number per 2 cm^2 w and the “effectiveness relative to DIME and DIPE” value ([2]; 72 hrs) was “about one half as effective as the other two drugs”.
